Test results published in patent publication US8865623B2, “Herbicidally active cyclic diones and derivatives thereof, processes for their preparation, compositions, and method of controlling weeds” (Syngenta Limited, priority 2009, dated 2014).

Legend:
Format in all cases: in vivo
[1] = test system: Alopecurus myosuroides (ALOMY); assay: Pre-emergence herbicidal activity, glasshouse pot test; conditions: Alopecurus myosuroides, 312 h; Rate 250 g/ha; pre-emergence spray; evaluated after 13 days; read-out: Pre-emergence activity ALOMY (100=total damage to plant; 0=no damage to plant)
Method in brief: (§1)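 Potted plants sprayed one day after sowing (pre-emergence) or after 8 days (post-emergence) with formulation in acetone/water (50:50) containing 0.5% Tween 20. Glasshouse at 24/16 °C, 14 h light, 65% humidity; damage scored after 13 days (0 none, 100 total).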

Avena fatua (AVEFA) [2] = assay: as above; conditions: Avena fatua, 312 h; Rate 250 g/ha; pre-emergence spray; evaluated after 13 days; read-out: Pre-emergence activity AVEFA (100=total damage to plant; 0=no damage to plant)
Method in brief: as §1

[3] = test system: Echinochloa crus-galli (ECHCG); assay: as above; conditions: Echinochloa crus-galli, 312 h; Rate 250 g/ha; pre-emergence spray; evaluated after 13 days; read-out: Pre-emergence activity ECHCG (100=total damage to plant; 0=no damage to plant)
Method in brief: as §1

Lolium perenne (LOLPE) [4] = assay: as above; conditions: Lolium perenne, 312 h; Rate 250 g/ha; pre-emergence spray; evaluated after 13 days; read-out: Pre-emergence activity LOLPE (100=total damage to plant; 0=no damage to plant)
Method in brief: as §1

[5] = test system: Alopecurus myosuroides (ALOMY); assay: Post-emergence herbicidal activity, glasshouse pot test; conditions: Alopecurus myosuroides, 312 h, rate 250 g/ha, evaluated after 13 days, glasshouse, read-out: Post-emergence activity ALOMY (100=total damage to plant; 0=no damage to plant)
Method in brief: as §1

Avena fatua (AVEFA) [6] = assay: as above; conditions: Avena fatua, 312 h, rate 250 g/ha, evaluated after 13 days, glasshouse, read-out: Post-emergence activity AVEFA (100=total damage to plant; 0=no damage to plant)
Method in brief: as §1

[7] = test system: Echinochloa crus-galli (ECHCG); assay: as above; conditions: Echinochloa crus-galli, 312 h, rate 250 g/ha, evaluated after 13 days, glasshouse, read-out: Post-emergence activity ECHCG (100=total damage to plant; 0=no damage to plant)
Method in brief: as §1

Lolium perenne (LOLPE) [8] = assay: as above; conditions: Lolium perenne, 312 h, rate 250 g/ha, evaluated after 13 days, glasshouse, read-out: Post-emergence activity LOLPE (100=total damage to plant; 0=no damage to plant)
Method in brief: as §1

| Structure (SMILES) | pest or weed control at 250 g/ha [1] [%] | pest or weed control at 250 g/ha (Avena fatua (AVEFA) [2]) [%] | pest or weed control at 250 g/ha [3] [%] | pest or weed control at 250 g/ha (Lolium perenne (LOLPE) [4]) [%] | pest or weed control at 250 g/ha [5] [%] | pest or weed control at 250 g/ha (Avena fatua (AVEFA) [6]) [%] | pest or weed control at 250 g/ha [7] [%] | pest or weed control at 250 g/ha (Lolium perenne (LOLPE) [8]) [%] |
| --- | --- | --- | --- | --- | --- | --- | --- | --- |
| CCc1ccc(Oc2ncc(Cl)cc2F)cc1C1=C(O)C(C)(C)OC(C)(C)C1=O [Example A-54] | 100 | 90 | 100 | 100 | 100 | 100 | 100 | 100 |
| CCc1ccc(Oc2cnc3cc(Cl)ccc3n2)cc1C1=C(O)C(C)(C)OC(C)(C)C1=O [Example A-55] | 80 | 90 | 100 | 100 | 100 | 100 | 100 | 100 |
| CCc1ccc(Oc2ccc3ccccc3c2)cc1C1=C(O)C(C)(C)OC(C)(C)C1=O [Example A-56] | 80 | 30 | 80 | 100 | 100 | 0 | 100 | 100 |
| CCc1ccc(Oc2cccc(F)c2)cc1C1=C(O)C(C)(C)OC(C)(C)C1=O [Example A-58] | 0 | 0 | 70 | 0 | 0 | 0 | 80 | 0 |
| CCc1ccc(Oc2nc(F)c(F)c(C)c2F)cc1C1=C(O)C(C)(C)OC(C)(C)C1=O [Example A-59] | 80 | 70 | 100 | 100 | 80 | 70 | 100 | 70 |
| CCc1ccc(Oc2nc(F)c(Cl)c(Cl)c2Cl)cc1C1=C(O)C(C)(C)OC(C)(C)C1=O [Example A-60] | 0 | 0 | 50 | 40 | 0 | 0 | 0 | 0 |
| CCc1ccc(Oc2ncc(C(F)(F)F)cc2F)cc1C1=C(O)C(C)(C)OC(C)(C)C1=O [Example A-62] | 100 | 100 | 100 | 100 | 100 | 100 | 100 | 100 |
| CCc1ccc(Oc2cc(C)ccn2)cc1C1=C(O)C(C)(C)OC(C)(C)C1=O [Example A-64] | 60 | 0 | 20 | 80 | 40 | 0 | 30 | 40 |
| CCc1ccc(Oc2ccc(Cl)cc2F)cc1C1=C(O)CC2(CCOCC2)CC1=O [Example A-65] | 70 | 90 | 100 | 80 | 90 | 90 | 100 | 80 |
| CCc1ccc(Oc2ccc(Cl)c(F)c2)cc1C1=C(O)CC2(CCOCC2)CC1=O [Example A-66] | 100 | 90 | 100 | 80 | 100 | 100 | 100 | 80 |
| CCc1ccc(Oc2ccc([N+](=O)[O-])c(Cl)c2)cc1C1=C(O)C(C)(C)OC(C)(C)C1=O [Example A-67] | 90 | 90 | 100 | 100 | 100 | 80 | 100 | 90 |
| CCc1ccc(Oc2ccc(Cl)c(F)c2)cc1C1=C(O)CCCC1=O [Example A-68] | 30 | 30 | 100 | 70 | 60 | 40 | 100 | 60 |
| CCc1ccc(Oc2ccc(F)cc2F)cc1C1=C(O)CCCC1=O [Example A-69] | 20 | 0 | 80 | 30 | 10 | 0 | 60 | 20 |
| CCc1ccc(Oc2ccc(F)cc2Cl)cc1C1=C(O)CC(C)(C)CC1=O [Example A-70] | 60 | 10 | 100 | 50 | 30 | 10 | 70 | 10 |
| CCc1ccc(Oc2ccc(Cl)cc2Cl)cc1C1=C(O)CC(C)(C)CC1=O [Example A-71] | 30 | 0 | 90 | 40 | 60 | 30 | 90 | 60 |
| CCc1ccc(Oc2ccnc(Cl)c2)cc1C1=C(O)C(C)(C)OC(C)(C)C1=O [Example A-72] | 60 | 30 | 90 | 70 | 60 | 50 | 90 | 40 |
| CCc1ccc(Oc2ccc(C#N)cc2Cl)cc1C1=C(O)C(C)(C)OC(C)(C)C1=O [Example A-73] | 90 | 80 | 100 | 80 | 90 | 40 | 100 | 70 |
| CCc1ccc(Oc2ccc(C#N)cc2C(F)(F)F)cc1C1=C(O)C(C)(C)OC(C)(C)C1=O [Example A-74] | 60 | 90 | 100 | 100 | 90 | 80 | 100 | 80 |
| CCc1ccc(Oc2ccc(C#N)c(Cl)c2)cc1C1=C(O)C(C)(C)OC(C)(C)C1=O [Example A-75] | 100 | 80 | 100 | 100 | 100 | 90 | 100 | 100 |
| CCc1ccc(Oc2ccc(C#N)c(C(F)(F)F)c2)cc1C1=C(O)C(C)(C)OC(C)(C)C1=O [Example A-76] | 70 | 80 | 100 | 60 | 80 | 70 | 100 | 70 |
| CCc1ccc(Oc2ccc(C#N)c(C#N)c2)cc1C1=C(O)C(C)(C)OC(C)(C)C1=O [Example A-77] | 40 | 20 | 70 | 30 | 60 | 30 | 70 | 30 |
